Experimental data as given in patent US4824937A, “Synthetic natriuretic peptides” (501 Advanced Peptide Development, Ltd., priority 1986, dated 1989).
Ends that are not written are not given here.

Tested on: rabbit thoracic aorta strips
Test: Vasorelaxant activity against noradrenaline-induced tension in aorta strips
Conditions: for Relative Potency: potency of BG-3009 taken arbitrarily as 100; for Ratio (noradrenaline EC50 in the presence of compound divided by EC50 with noradrenaline alone): added 5 min before noradrenaline
Description: The vasorelaxant activities of the SNP of this invention are determined in vitro using freshly prepared rabbit thoracic aorta strips, helically cut according to the method of Furchgott et al., 1953 J. Pharmacol. Exp. Therap. 108, 129. One end of each strip is attached to a holding rod, the other end is equipped with a silk thread which is kept under a tension of about 5 g, and the complete assembly is kept over night at 4° C. in oxygenated Krebs solution. On the day of the experiment each strip is set up in a 10 ml bath of oxygenated (5% CO2) Krebs solution at 37° C. and the thread is attached to an isometric force transducer (Grass Instruments Model FT.03) connected to a polygraph (Grass Instruments Model 5). A resting tension of 5 g is applied to each strip and is readjusted until a stable resting tension is attained (45-60 minutes). The strips are then challenged repeatedly with the same dose of noradrenaline to ensure that the induced increase in tension is uniform. The stock solution of noradrenaline bitartrate (Sigma Chemical Co.) is made up in 0.001N HCl, and dilutions are freshly prepared in deionized water containing 0.0001M ascorbic acid and are kept protected from light during the experiments. In each experiment two cumulative full dose-response determinations to noradrenaline alone are carried out consecutively on one strip (time control). On the other strips dose-response determinations are done with noradrenaline alone, and then repeated five minutes after having added the compound to be tested to concentrations of 2, 5, 50, and 500 ng/ml, respectively. The tension elicited by each concentration of noradrenaline is expressed as a percentage of the maximal response obtained with noradrenaline, and the concentration of noradrenaline producing a tension equal to 50% of the maximal response is calculated (EC50). The same calculations are also carried out with the results obtained in the presence of the various concentrations of the compound to be tested, and the EC50 thus obtained is divided by the EC50 obtained in the absence of said compound, to arrive at a ration which is clear indication of the potency of the respective compound.
The SNP of formula 1 in which R^1 is H-D-Tyr, R^2 is Ile, and R^3 is OH, identified by the code number 05-22-0318 is tested for its vasorelaxant activities and compared with a known ANP composed of 28 amino acid residues and identified by the code number BG-3009. The test method is described above in some detail. Two rabbits are sacrificed and the thoracic aorta prepared from each animal is helically cut so as to obtain five strips from each aorta. One strip from each aorta is used for time control and is exposed to the full range of concentrations of noradrenaline alone at the beginning and at the end of the experiment, and the concentrations of noradrenaline giving 50% of the maximal response are calculated (EC50). […] One strip from each of the remaining two pairs of strips from each aorta is then exposed to the full range of concentrations of noradrenaline alone as described above, and the responses are noted. The other strip from the same pair is first exposed to concentrations of 2, 5, 50, and 500 ng/ml of the compound to be tested, respectively, and five minutes after having added the above concentrations of the compound to be tested the strip is challenged with noradrenaline at increasing concentrations and the responses obtained are noted again. The EC50 obtained in the presence of the respective concentration of the compound to be tested is then divided by the EC50 obtained in the absence of said compound with noradrenaline alone, and the ratio of the two EC50's is calculated to give a clear measure of the vasorelaxant properties of said compound. Furthermore, when taking the potency of the reference compound having the code number BG-3009 arbitrarily as 100 the relative potencies of the above SNP (code No. 05-22-0318) at the respective levels of concentration are also calculated. […]

BG-3009: known ANP composed of 28 amino acid residues, identical with the ANP described by Flynn et al. (SLRRSSCFGGRIDRIGAQSGLGCNSFRY; not fully specified; ends and bridges not checked; UniProt P01161 123-150, looked up)
Relative Potency (2 ng/ml): 100
Relative Potency (5 ng/ml): 100
Relative Potency (50 ng/ml): 100
Relative Potency (500 ng/ml): 100
Ratio (noradrenaline EC50 in the presence of compound divided by EC50 with noradrenaline alone) (compound concentration 2 ng/ml): 2.9
Ratio (noradrenaline EC50 in the presence of compound divided by EC50 with noradrenaline alone) (compound concentration 5 ng/ml): 3.8
Ratio (noradrenaline EC50 in the presence of compound divided by EC50 with noradrenaline alone) (compound concentration 50 ng/ml): 25.8
Ratio (noradrenaline EC50 in the presence of compound divided by EC50 with noradrenaline alone) (compound concentration 500 ng/ml): 26.1
